Data reported in patent US12022844B2, “Nutritional composition, food/drink composition using nutritional composition, and modified milk powder using nutritional composition” (priority 2018, dated 2024).

Experiments:
Test in all cases: Single bacterial culturing with HMO as sugar source, OD650
[1] = tested on: Bifidobacterium adolescentis ATCC15703; assay type: cell-based; details: ATCC 15703^T, sugar source 2%, 8 h, Table 6
Method: (§1) A10% solution of glucose (manufactured by Nakarai Tesque Inc.), and 2′-FL ((≥95%) Funakoshi, available from sigma), and LNnT (manufactured by ELICITYL) as examples of HMOs was prepared with ion exchanged water, and was subjected to sterile filtration using Millex-GV (SLGV033RS).
(§2) Lactobacilli MRS Broth (BD) (0.05% L-Cysteine Hydrochloride for Bacteria of the genus Bifidobacterium) was added to strains of Table 1 below (bacteria belonging to Bifidobacterium bifidum) and Table 2 below. After a sterilization treatment, 3% of the bacterial solution was inoculated, and anaerobically cultured (pre-pre cultured) at 37° C. for 16 h.
(§3) The following day, 1% glucose was added to a modified BL agar medium (“Studies on Bifidobacteria” by Tomotari Mitsuoka, p. 306, Japan Bifidus Foundation, issued in 1994) noted in Table 3, for preparation. After a sterilization treatment, 3% of the pre-pre cultured bacterial solution was inoculated, and anaerobically pre-cultured (pre-cultured) at 37° C. for 12 h.
(§4) The pre-cultured bacterial solution was collected and washed once with a sterile physiological saline solution. Then, mass-up was performed to an equal volume with the modified BL agar medium (“Studies on Bifidobacteria” by Tomotari Mitsuoka, p. 306, Japan Bifidus Foundation, issued in 1994) noted in Table 3 to prepare a suspended bacterial solution.
(§5) The modified BL agar medium (“Studies on Bifidobacteria” by Tomotari Mitsuoka, p. 306, Japan Bifidus Foundation, issued in 1994) noted in Table 3 was prepared at a capacity of 60%, and was subjected to an autoclave sterilization treatment. Then, 40% of each sugar solution prepared in (1) was aseptically added so as to prepare a medium with a sugar concentration of 4%.
(§6) The medium prepared in the above (3) was dispensed at a capacity that is half the capacity for culturing in a 96-well plate, and the bacterial solution prepared in the above (2) was dispensed at a remaining half capacity such that the bacterial solution had 6%. Then, a final sugar concentration was set to 2%. The plate into which the bacterial solution was dispensed was anaerobically cultured at 37° C. for 8 h.
(§7) OD650 was measured from each well in the plates in the above (4) and the above (5) before (0 h) culturing and after (8 h) culturing, by MICROPLATE READER SH-9000 (manufactured by CORONA ELECTRIC). After turbidity measurement, microbial cells were collected, and DNA extraction was performed. After the DNA extraction, the number of proliferating bacteria of Bifidobacteria/lactobacilli was analyzed by using the bacterial species-specific primer noted in Table 4, by a quantitative PCR method (see “Structural analysis of intestinal flora”—analysis of bacterial flora in human feces using quantitative PCR—by Kouichi Watanabe, Enterobacteriological journal, 20:35-42, 2006).
(§8) Regarding strains in Table 2, each strain was cultured as a single bacterium by 2′-FL or LNnT (HMOs) as a sugar source, and OD650 was measured. The results for 2′-FL are noted in Table 6 below, and the results for LNnT are noted in Table 7 below.

[2] = tested on: Lactobacillus gasseri ATCC33323; assay type: cell-based; details: ATCC 33323^T, sugar source 2%, 8 h, Table 6
Method: as §1, §2, §3, §4, §5, §6, §7, §8

[3] = tested on: Bifidobacterium pseudolongum ATCC25526; assay type: cell-based; details: ATCC 25526^T, sugar source 2%, 8 h, Table 6
Method: as §1, §2, §3, §4, §5, §6, §7, §8

[4] = tested on: Lactobacillus acidophhilus ATCC4356; assay type: cell-based, Lactobacillus acidophilus; details: ATCC 4356^T, sugar source 2%, 8 h, Table 6
Method: as §1
Lactobacilli MRS Broth (BD) (0.05% L-Cysteine Hydrochloride for Bacteria of the genus Bifidobacterium) was added to strains of Table 1 below (bacteria belonging to Bifidobacterium bifidum) and Table 2 below. After a sterilization treatment, 3% of the bacterial solution was inoculated, and anaerobically cultured (pre-pre cultured) at 37° C. for 16 h. […]
OD650 was measured from each well in the plates in the above (4) and the above (5) before (0 h) culturing and after (8 h) culturing, by MICROPLATE READER SH-9000 (manufactured by CORONA ELECTRIC). […] After the DNA extraction, the number of proliferating bacteria of Bifidobacteria/lactobacilli was analyzed by using the bacterial species-specific primer noted in Table 4, by a quantitative PCR method (see “Structural analysis of intestinal flora”—analysis of bacterial flora in human feces using quantitative PCR—by Kouichi Watanabe, Enterobacteriological journal, 20:35-42, 2006).
Regarding strains in Table 2, each strain was cultured as a single bacterium by 2′-FL or LNnT (HMOs) as a sugar source, and OD650 was measured. […]

[5] = tested on: Bifidobacterium animalis subsp lactis MCC-525; assay type: cell-based; details: sugar source 2%, 8 h, Table 7
Method: as §1, §2, §3, §4, §5, §6, §7, §8

Row | Molecule | OD650 increase value [1] | OD650 increase value [2] | OD650 increase value [3] | OD650 increase value [4] | OD650 increase value [5]
1 | 2′-fucosyllactose [2′-FL] | −0.01 | −0.017 | 0.022 | 0.01 | –
2 | CC(=O)N[C@H]1[C@H](O[C@H]2[C@@H](O)[C@@H](CO)O[C@@H](O[C@H]3[C@H](O)[C@@H](O)C(O)O[C@@H]3CO)[C@@H]2O)O[C@H](CO)[C@@H](O[C@@H]2O[C@H](CO)[C@H](O)[C@H](O)[C@H]2O)[C@@H]1O (mixture of isomers) [LNnT, lacto-N-neotetraose] | – | – | – | – | 0.096
